Experimental findings from patent US5312831A, “Urethanes and ureas that induce cytokine production” (American Cyanamid Company, priority 1993, dated 1994) are described below.

Holding throughout (format): in vivo, mouse
Test [1] concerns IL-6. Nature of the test: Serum IL-6 production in mice after single s.c. injection (7TD1 bioassay). To be noted: serum 4 h post injection. The protocol: Description of Biological Assays Interleukin 6(IL-6) assay for structure function analysis--Test compounds are dissolved in water and administered subcutaneously in 0.2 ml to deliver a dose of 0.1-10 mg/kg. The less soluble compounds are first dissolved in 100% ethanol and then brought to the appropriate concentration in water. Four hours post injection, the mice are bled and the serum is retrieved. The IL-6 dependent cell line 7TDl is used to assay serial dilutions of sera for IL-6 content. 7TDl cells (1×10^4) are placed in microtiter wells and incubated at 37° C. for 72 hours with standard recombinant mouse IL-6 or with dilutions of serum to be tested. Over the last 6 hours, the cells are pulsed with ^3 H-Tdr (μci). Cells are then harvested and the degree of proliferation determined by the uptake of ^3 H-Tdr as measured by liquid scintillation spectrometry. The concentration of IL-6 in serum is calculated from standard curves utilizing recombinant IL-6 from R&D Systems Inc. and are reported in units of IL-6 activity as defined by the manufacturer.

The test system of test [2] is CSF. Nature of the test: Serum colony stimulating factor (CSF) assay in mice. As to conditions: serum 4 hours after injection. Here is the method:
Colony forming assays Granulocyte-Macrophage (CFU-GM)--Mice are treated with 150 mg/kg of 5-Fu and treatment with test compound begins 24 hrs. later. On consecutive days, mice are killed by cervical dislocation and the femurs removed under sterile conditions. Femurs are flushed with 1 ml of ice cold medium (Iscove's supplemented with 20% FCS, 1% penicillin-streptomycin, 1% glutamine and 5×10^-5 M 2-mercaptoethanol). Bone marrow cells (5×10^5) are then plated in 12×75 mm tissue culture plates in 3 ml of warm ararose (3%) in Iscove's medium with 100 Units/ml of recombinant mouse GM-CSF purchased from Genzyme (Boston, Mass.). Plates are incubated for 7 days at 37° C. in 5% CO2. After 7 days, colonies of 50 cells or greater are enumerated under a dissecting microscope.
Bone marrow cells are prepared as described above for the CFU-GM assay. The cells are then incubated in soft agar with an 0.3% final concentration of serum taken from mice 4 hours after injection with test compounds. After 7 days of incubation at 37° C., the number of colony forming (CFU) cells per 10^5 plated bone marrow cells is determined by counting colonies of more than 50 cells under a dissecting microscope. The data are reported as CFU/10^5 bone marrow cells.

Test [3] deals with neutrophils. Put plainly: Neutrophil recovery in 5-FU treated mice. To be noted: mouse, in vivo. Here is the method:
Circulating Neutrophil Assay--Mice are treated with 5-FU (150 mg/kg) and beginning 24 hrs. later, treated daily with the test compound. Mice are bled daily by retroorbital puncture in heparinized capillary tubes. Circulating WBC counts are determined by Coulter counter. Blood smears are stained with Wright-Geimsa solution and the percentage circulating neutrophils determined by differential counting under a microscope.
5-Fluorouracil (5-FU) Induced Neutropenia In Mice--Mice are treated ip with 150 mg/kg of the chemotherapy agent 5-FU which induces a severe loss of neutrophils in the peripheral blood 5-6 days later. Twenty-four hrs. after the dose, treatment with the test compounds is initiated. The effect of the test compounds on recovery of neutrophil progenitor cells in the bone marrow is determined by the CFU-GM assay. The recovery of circulating neutrophils is followed by differential staining of the peripheral blood.
*Data from 10 mice/group on day 7 post treatment with 150 mg/kg of 5FU.
Beginning 24 hrs. after 5FU dose, mice were treated daily with test
compound at concentrations indicated. Neutrophil count for normal mice (n
**Mice treated with 5FU and vehicle only.

Test [4] deals with neutrophils. Nature of the test: Neutrophil recovery in 5-FU treated mice. As to conditions: day 7 post 5FU, n = 6 mice/group, 0 dose 54 ± 22.

In test [1] (0.1 mg/kg s.c.), `CCCCCCC(=O)N[C@H](C(=O)O)[C@H](C)OC(=O)N[C@@H](CCC[C@@H](N)C(=O)O)C(=O)N[C@H](C)C(=O)O` [Example 30, [S-(R*,R*)]-N-(R)-6-carboxy-N^2-[[2-Carboxy-1-methyl-2-[(1-oxoheptyl)amino]ethoxy]carbonyl]-L-lysyl]-D-Alanine] gave an IL-6 of 328 ± 107 U/ml.

With `CCCCCCC(=O)N[C@@H](C(=O)O)[C@H](C)OC(=O)N[C@@H](CCC[C@@H](N)C(=O)O)C(=O)N[C@H](C)C(=O)O` [Example 29, [S-(R*,S*)]-N-[(R)-6-carboxy-N^2-[[2-carboxy-1-methyl-2-[(1-oxoheptyl)amino]ethoxy]carbonyl]-L-lysyl]-D-Alanine], the “CSF production, CFU/100,000 Bone Marrow Cells” value (“CSF production” below) in test [2] (0.1 mg/kg) is recorded as 0 ± 0 CFU/100,000 Bone Marrow Cells; in test [2] (1.0 mg/kg), 101 ± 46 CFU/100,000 Bone Marrow Cells. In addition, the figures for the IL-6 in test [1] (0.1 mg/kg s.c.), in test [1] (1.0 mg/kg s.c.) and in test [1] (10.0 mg/kg s.c.) were 0 U/ml, 203 U/ml and 537 U/ml, respectively.

For `CCCCCCC(=O)NC(CNC(=O)N[C@@H](CCCC(NC(=O)OC(C)(C)C)C(=O)O)C(=O)N[C@H](C)C(=O)O)C(=O)O` (stereo partly shown) [Example 83], the results for the “CSF production” value in test [2] (1.0 mg/kg) and in test [2] (10.0 mg/kg) were 204 ± 9 CFU/100,000 Bone Marrow Cells and 123 ± 22 CFU/100,000 Bone Marrow Cells, respectively. In addition, the IL-6 in test [1] (1.0 mg/kg s.c.) amounted to 332 ± 38 U/ml; in test [1] (10.0 mg/kg s.c.) it was 1818 ± 243 U/ml.

As to `CCCCCCC(=O)NC(CNC(=O)N[C@@H](CCCC(NC(=O)OC(C)(C)C)C(=O)OC)C(=O)N[C@H](C)C(=O)OC)C(=O)O` (stereo partly drawn) [Example 81, N-N^2-[[[2-carboxy-2-[(1-oxoheptyl)amino]ethyl]amino]carbonyl]-N^6-[(1,1-dimethylethoxy)carbonyl]-6-(methoxycarbonyl)-L-lysyl-D-alanine methyl ester], the entries for the “CSF production” value in test [2] (1.0 mg/kg) and in test [2] (10.0 mg/kg) were 69 ± 14 CFU/100,000 Bone Marrow Cells and 101 ± 7 CFU/100,000 Bone Marrow Cells, respectively. For the same compound, the results for the IL-6 in test [1] (1.0 mg/kg s.c.) and in test [1] (10.0 mg/kg s.c.) were 56 ± 19 U/ml and 199 ± 23 U/ml, respectively.

Turning to `CCCCCC1CCC(C(=O)NC(C(=O)O)C(C)OC(=O)N[C@@H](CCC[C@@H](N)C(=O)O)C(=O)N[C@H](C)C(=O)O)CC1` (stereo partly drawn) [Example 33, [(R)-6-Carboxy-N^2-[[2-carboxy-1-methyl-2-[[(4-pentylcyclohexyl)carbonyl]amino]ethoxy]carbonyl]-L-lysyl]-D-Alanine], the IL-6 was found to be 1651 ± 100 U/ml in test [1] (0.1 mg/kg s.c.) and 3767 ± 457 U/ml in test [1] (1.0 mg/kg s.c.).

Regarding `CCCCCCC(=O)NC(CNC(=O)N[C@@H](CCCC(N)C(=O)OC)C(=O)N[C@H](C)C(=O)OC)C(=O)O` (stereo partly shown) [Example 82], the “CSF production” value in test [2] (1.0 mg/kg) is 108 ± 11 CFU/100,000 Bone Marrow Cells; in test [2] (10.0 mg/kg), 115 ± 3 CFU/100,000 Bone Marrow Cells. Moreover, the IL-6 was found to be 2181 ± 92 U/ml in test [1] (1.0 mg/kg s.c.) and 3188 ± 345 U/ml in test [1] (10.0 mg/kg s.c.).

As for `CCCCOc1ccc(CC(=O)NC(C(=O)O)C(C)OC(=O)N[C@@H](CCC[C@@H](N)C(=O)O)C(=O)N[C@H](C)C(=O)O)cc1` (stereo partly drawn) [Example 34, N-[N^2-[[2-[[(4-Butoxyphenyl)acetyl]amino]-2-carboxy-1-methylethoxy]carbonyl]-(R)-6-carboxy-L-lysyl]-D-Alanine], the figures for the IL-6 in test [1] (0.1 mg/kg s.c.) and in test [1] (1.0 mg/kg s.c.) were 3610 ± 347 U/ml and 5063 ± 302 U/ml, respectively.

For `CCCCCCC(=O)NC(CNC(=O)N[C@@H](CCCC(N)C(=O)OC)C(=O)N[C@H](C)C(=O)OC)C(=O)OCc1ccccc1` (stereo partly shown) [Example 80], the results for the “CSF production” value in test [2] (1.0 mg/kg) and in test [2] (10.0 mg/kg) were 91 ± 3 CFU/100,000 Bone Marrow Cells and 121 ± 9 CFU/100,000 Bone Marrow Cells, respectively. In addition, the IL-6 amounted to 1712 ± 168 U/ml in test [1] (1.0 mg/kg s.c.) and 3624 ± 611 U/ml in test [1] (10.0 mg/kg s.c.).

`CCCCCCC(=O)N[C@H](C(=O)O)[C@@H](C)OC(=O)N[C@@H](CCC[C@@H](N)C(=O)O)C(=O)N[C@H](C)C(=O)O` (relative stereo) [Example 31, R-(R*,S*)]-N-(R)-6-carboxy-N^2-[[2-carboxy-1-methyl-2-[(1-oxoheptyl)amino]ethoxy]carbonyl]-L-lysyl]-D-Alanine] showed an IL-6 in test [1] (0.1 mg/kg s.c.) of 294 ± 24 U/ml.

`CCCCCCC(=O)NC(CNC(=O)N[C@@H](CCCC(N)C(=O)O)C(=O)N[C@H](C)C(=O)O)C(=O)O` (stereo partly shown) [Example 84]: in test [3], the “neutrophil recovery in 5-FU treated mice (in words)” value is given as “induce neutrophil recovery in 5-FU treated mice”. For the same compound, the “CSF production” value is given as 129 ± 14 CFU/100,000 Bone Marrow Cells in test [2] (0.1 mg/kg), 118 ± 15 CFU/100,000 Bone Marrow Cells in test [2] (1.0 mg/kg) and 131 ± 10 CFU/100,000 Bone Marrow Cells in test [2] (10.0 mg/kg). Besides, the IL-6 in test [1] (0.1 mg/kg s.c.) is 1963 ± 97 U/ml; in test [1] (1.0 mg/kg s.c.), 3865 ± 688 U/ml; in test [1] (10.0 mg/kg s.c.) it was 2512 ± 209 U/ml. Moreover, the Neutrophils/cu. mm. in test [4] (1 μg/kg daily) is reported as 427 ± 211 /cu. mm; in test [4] (10 μg/kg daily), 570 ± 224 /cu. mm; in test [4] (100 μg/kg daily), 2194 ± 629 /cu. mm.
